Experiments:
purple nutsedge = experiment: Test B pre/postemergence purple nutsedge; assay type: in vivo, Cyperus rotundus
Method in brief: (§1)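 Response is a visual 0-to-10 score relative to untreated plants, where 0 means no effect and 10 means complete control, taken twelve to sixteen days after application. Treatments went onto soil at planting and onto foliage of 1- to 4-leaf plants, using a surfactant-containing non-phytotoxic solvent.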

bedstraw = experiment: Test B pre/postemergence bedstraw; assay type: in vivo, Galium aparine; conditions: Postemergence
Method in brief: as §1

giant foxtail = experiment: Test B pre/postemergence giant foxtail; assay type: in vivo, Setaria faberii
Method in brief: as §1

cocklebur = experiment: Test B pre/postemergence cocklebur; assay type: in vivo, Xanthium strumarium
Method in brief: as §1

rice = experiment: Test B flood test rice; assay type: in vivo, Oryza sativa
Method in brief: (§2)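 Read-out is a visual response score from 0 (no effect) to 10 (complete control), assigned by comparison with untreated controls. Treatment was applied at the 2-leaf stage, and plants stayed in the greenhouse for twelve to sixteen days before scoring.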

pigweed = experiment: Test B pre/postemergence pigweed; assay type: in vivo, Amaranthus retroflexus
Method in brief: as §1

smallflower flatsedge = experiment: Test B flood test smallflower flatsedge; assay type: in vivo, Cyperus difformis
Method in brief: as §2

morningglory = experiment: Test B pre/postemergence morningglory; assay type: in vivo, Ipomoea hederacea
Method in brief: as §1

surinam grass = experiment: Test B pre/postemergence surinam grass; assay type: in vivo, Brachiaria decumbens
Method in brief: as §1

blackgrass = experiment: Test B pre/postemergence blackgrass; assay type: in vivo, Alopecurus myosuroides
Method in brief: as §1

corn = experiment: Test B pre/postemergence corn; assay type: in vivo, Zea mays
Method in brief: as §1

duck salad = experiment: Test B flood test duck salad; assay type: in vivo, Heteranthera limosa
Method in brief: as §2

rape = experiment: Test B pre/postemergence rape; assay type: in vivo, Brassica napus
Method in brief: as §1

velvetleaf = experiment: Test B pre/postemergence velvetleaf; assay type: in vivo, Abutilon theophrasti
Method in brief: as §1

sugar beet = experiment: Test B pre/postemergence sugar beet; assay type: in vivo, Beta vulgaris
Method in brief: as §1

wild oat = experiment: Test B pre/postemergence wild oat; assay type: in vivo, Avena fatua
Method in brief: as §1

wheat = experiment: Test B pre/postemergence wheat; assay type: in vivo, Triticum aestivum
Method in brief: as §1

crabgrass = experiment: Test B pre/postemergence crabgrass; assay type: in vivo, Digitaria sanguinalis
Method in brief: as §1

bamyardgrass = experiment: Test B flood test barnyardgrass; assay type: in vivo, Echinochloa crus-galli
Method in brief: as §2

soybean = experiment: Test B pre/postemergence soybean; assay type: in vivo, Glycine max
Method in brief: as §1

[1] = Postemergence, Rate 125 g/ha, scale 0 to 10, 0 is no effect, 10 is complete control
[2] = Postemergence, Rate 500 g/ha, scale 0 to 10, 0 is no effect, 10 is complete control
[3] = Preemergence, Rate 62 g/ha, scale of 0 to 10 where 0 is no effect and 10 is complete control
[4] = Preemergence, Rate 125 g/ha, scale 0 to 10, 0 is no effect, 10 is complete control
[5] = Preemergence, Rate 500 g/ha, scale 0 to 10, 0 is no effect, 10 is complete control
[6] = Rate 62 g/ha, Postemergence, scale 0 to 10 (0 no effect, 10 complete control)
[7] = Postemergence, Rate 250 g/ha, scale 0 to 10
[8] = Preemergence, Rate 250 g/ha, scale 0 to 10, 0 is no effect, 10 is complete control
[9] = Rate 62 g/ha, flood test species, Pre-emergence, visual evaluation after twelve to sixteen days
[10] = Rate 125 g/ha, under heading Pre-emergence, flood test species, visual evaluation after twelve to sixteen days
[11] = Rate 250 g/ha, Pre-emergence (flood test species), scale 0 to 10, 0 is no effect, 10 is complete control
[12] = Rate 500 g/ha, Pre-emergence section of Table B, 0 to 10 scale (0 no effect, 10 complete control)

In the case of `CC(C)N(C(=O)n1oc(=O)n(CC(=O)C2CC2)c1=O)c1ccccc1` [Compound 489], the “Nutsedge plant response rating” value (purple nutsedge; [1]) is reported as 0, the “Plant response rating, Nutsedge” value (purple nutsedge; [2]) is reported as 0 and the “Plant response rating, Nutsedge” value (purple nutsedge; [3]) is reported as 0. For the same molecule, the “Nutsedge plant response rating” value (purple nutsedge; [4]) was 0, the “Nutsedge plant response rating” value (purple nutsedge; [5]) was 0 and the “Nutsedge plant response rating” value (purple nutsedge; [6]) was 0. The “Bedstraw plant response rating” value (bedstraw; Rate 125 g/ha, scale 0 to 10, 0 is no effect, 10 is complete control) was 3, the “Bedstraw plant response rating” value (bedstraw; Rate 250 g/ha, scale 0 to 10) was 5 and the “Bedstraw plant response rating” value (bedstraw; Rate 62 g/ha, scale 0 to 10 (0 no effect, 10 complete control)) was 0. The “Giant foxtail plant response rating” value (giant foxtail; [1]) was 8, the “Plant response rating, Giant foxtail” value (giant foxtail; [2]) was 9 and the “Plant response rating, Giant foxtail” value (giant foxtail; [3]) was 9. The “Giant foxtail plant response rating” value (giant foxtail; [4]) was 10, the “Giant foxtail plant response rating” value (giant foxtail; [5]) was 10 and the “Giant foxtail plant response rating” value (giant foxtail; [6]) was 2. For the same molecule, the “Cocklebur plant response rating” value (cocklebur; [1]) was 0, the “Cocklebur plant response rating” value (cocklebur; [7]) was 0 and the “Plant response rating, Cocklebur” value (cocklebur; [2]) was 0. For the same molecule, the “Plant response rating, Cocklebur” value (cocklebur; [3]) was 0, the “Cocklebur plant response rating” value (cocklebur; [4]) was 0 and the “Cocklebur plant response rating” value (cocklebur; [8]) was 0. For the same molecule, the “Cocklebur plant response rating” value (cocklebur; [5]) was 0, the “Cocklebur plant response rating” value (cocklebur; [6]) was 0 and the “Plant response rating, Rice (0 to 10 scale, 0 is no effect, 10 is complete control)” value (rice; [9]) was 0. For the same molecule, the “Rice plant response rating (0 to 10 scale, 0 is no effect, 10 is complete control)” value (rice; [10]) was 0, the “Rice plant response rating” value (rice; [11]) was 0 and the “Rice plant response rating” value (rice; [12]) was 0. The “Redroot pigweed plant response rating” value (pigweed; [1]) was 0, the “Plant response rating, Redroot pigweed” value (pigweed; [2]) was 2 and the “Plant response rating, Redroot pigweed” value (pigweed; [3]) was 0. The “Redroot pigweed plant response rating” value (pigweed; [5]) was 10, the “Redroot pigweed plant response rating” value (pigweed; [6]) was 0 and the “Plant response rating, S. Flatsedge (0 to 10 scale, 0 is no effect, 10 is complete control)” value (smallflower flatsedge; [9]) was 0. For the same molecule, the “S. Flatsedge plant response rating (0 to 10 scale, 0 is no effect, 10 is complete control)” value (smallflower flatsedge; [10]) was 0, the “S. Flatsedge plant response rating” value (smallflower flatsedge; [11]) was 0 and the “S. Flatsedge plant response rating” value (smallflower flatsedge; [12]) was 0. For the same molecule, the “Morningglory plant response rating” value (morningglory; [1]) was 7, the “Plant response rating, Morningglory” value (morningglory; [2]) was 10 and the “Plant response rating, Morningglory” value (morningglory; [3]) was 0. The “Morningglory plant response rating” value (morningglory; [4]) was 0, the “Morningglory plant response rating” value (morningglory; [5]) was 1 and the “Morningglory plant response rating” value (morningglory; [6]) was 2. For the same molecule, the “B. signalgrass plant response rating” value (surinam grass; [1]) was 2, the “B. signalgrass plant response rating” value (surinam grass; Postemergence, Rate 250 g/ha, scale 0 to 10, 0 no effect, 10 complete control) was 6 and the “Plant response rating, B. signalgrass” value (surinam grass; [2]) was 8. For the same molecule, the “Plant response rating, B. signalgrass” value (surinam grass; [3]) was 6, the “B. signalgrass plant response rating” value (surinam grass; [4]) was 7 and the “B. signalgrass plant response rating” value (surinam grass; [8]) was 8. The “B. signalgrass plant response rating” value (surinam grass; [5]) was 9, the “B. signalgrass plant response rating” value (surinam grass; [6]) was 1 and the “Blackgrass plant response rating” value (blackgrass; [1]) was 6. For the same molecule, the “Blackgrass plant response rating” value (blackgrass; [7]) was 8, the “Plant response rating, Blackgrass” value (blackgrass; [2]) was 8 and the “Plant response rating, Blackgrass” value (blackgrass; [3]) was 7. For the same molecule, the “Blackgrass plant response rating” value (blackgrass; [4]) was 8, the “Blackgrass plant response rating” value (blackgrass; [8]) was 9 and the “Blackgrass plant response rating” value (blackgrass; [5]) was 10. For the same molecule, the “Blackgrass plant response rating” value (blackgrass; [6]) was 1, the “Corn plant response rating” value (corn; [1]) was 0 and the “Corn plant response rating” value (corn; [7]) was 0. For the same molecule, the “Plant response rating, Corn” value (corn; [2]) was 4, the “Plant response rating, Corn” value (corn; [3]) was 0 and the “Corn plant response rating” value (corn; [4]) was 0. The “Corn plant response rating” value (corn; [5]) was 5, the “Corn plant response rating” value (corn; [6]) was 0 and the “Plant response rating, Ducksalad (0 to 10 scale, 0 is no effect, 10 is complete control)” value (duck salad; [9]) was 0. For the same molecule, the “Ducksalad plant response rating (0 to 10 scale, 0 is no effect, 10 is complete control)” value (duck salad; [10]) was 0, the “Ducksalad plant response rating” value (duck salad; [11]) was 0 and the “Ducksalad plant response rating” value (duck salad; [12]) was 0. The “Rape plant response rating” value (rape; [1]) was 0, the “Plant response rating, Rape” value (rape; [2]) was 0 and the “Plant response rating, Rape” value (rape; [3]) was 0. The “Rape plant response rating” value (rape; [4]) was 0, the “Rape plant response rating” value (rape; [5]) was 9 and the “Rape plant response rating” value (rape; [6]) was 0. The “Velvetleaf plant response rating” value (velvetleaf; [1]) was 0, the “Plant response rating, Velvetleaf” value (velvetleaf; [2]) was 5 and the “Plant response rating, Velvetleaf” value (velvetleaf; [3]) was 2. For the same molecule, the “Velvetleaf plant response rating” value (velvetleaf; [4]) was 2, the “Velvetleaf plant response rating” value (velvetleaf; [5]) was 7 and the “Velvetleaf plant response rating” value (velvetleaf; [6]) was 0. The “Sugarbeets plant response rating” value (sugar beet; [1]) was 0, the “Plant response rating, Sugarbeets” value (sugar beet; [2]) was 0 and the “Plant response rating, Sugarbeets” value (sugar beet; [3]) was 0. The “Sugarbeets plant response rating” value (sugar beet; [4]) was 2, the “Sugarbeets plant response rating” value (sugar beet; [5]) was 5 and the “Sugarbeets plant response rating” value (sugar beet; [6]) was 0. The “Wild oats plant response rating” value (wild oat; [1]) was 1, the “Plant response rating, Wild oats” value (wild oat; [2]) was 3 and the “Plant response rating, Wild oats” value (wild oat; [3]) was 0. For the same molecule, the “Wild oats plant response rating” value (wild oat; [4]) was 4, the “Wild oats plant response rating” value (wild oat; [5]) was 9 and the “Wild oats plant response rating” value (wild oat; [6]) was 0. The “Wheat plant response rating” value (wheat; [1]) was 0, the “Plant response rating, Wheat” value (wheat; [2]) was 2 and the “Plant response rating, Wheat” value (wheat; [3]) was 0. For the same molecule, the “Wheat plant response rating” value (wheat; [4]) was 0, the “Wheat plant response rating” value (wheat; [5]) was 6 and the “Wheat plant response rating” value (wheat; [6]) was 0. For the same molecule, the “Crabgrass plant response rating” value (crabgrass; [1]) was 5, the “Crabgrass plant response rating” value (crabgrass; [7]) was 8 and the “Plant response rating, Crabgrass” value (crabgrass; [2]) was 9. The “Plant response rating, Crabgrass” value (crabgrass; [3]) was 9, the “Crabgrass plant response rating” value (crabgrass; [4]) was 10 and the “Crabgrass plant response rating” value (crabgrass; [5]) was 10. For the same molecule, the “Crabgrass plant response rating” value (crabgrass; [6]) was 2, the “Plant response rating, Barnyardgrass (0 to 10 scale, 0 is no effect, 10 is complete control)” value (bamyardgrass; [9]) was 0 and the “Barnyardgrass plant response rating (0 to 10 scale, 0 is no effect, 10 is complete control)” value (bamyardgrass; [10]) was 0. The “Barnyardgrass plant response rating” value (bamyardgrass; [11]) was 0, the “Barnyardgrass plant response rating” value (bamyardgrass; [12]) was 0 and the “Soybean plant response rating” value (soybean; [1]) was 5. For the same molecule, the “Plant response rating, Soybean” value (soybean; [2]) was 7, the “Plant response rating, Soybean” value (soybean; [3]) was 0 and the “Soybean plant response rating” value (soybean; [4]) was 1. For the same molecule, the “Soybean plant response rating” value (soybean; [5]) was 3 and the “Soybean plant response rating” value (soybean; [6]) was 3.
